In the Kinase Knowledgebase extract (Sharma et al. 2016):

Molecular target: ROCK2 (human) (UniProt O75116)
Experiment: Inhibition of ROCK2 Kinase Activity

Sequence of ROCK2 (human) (O75116 whole entry, looked up): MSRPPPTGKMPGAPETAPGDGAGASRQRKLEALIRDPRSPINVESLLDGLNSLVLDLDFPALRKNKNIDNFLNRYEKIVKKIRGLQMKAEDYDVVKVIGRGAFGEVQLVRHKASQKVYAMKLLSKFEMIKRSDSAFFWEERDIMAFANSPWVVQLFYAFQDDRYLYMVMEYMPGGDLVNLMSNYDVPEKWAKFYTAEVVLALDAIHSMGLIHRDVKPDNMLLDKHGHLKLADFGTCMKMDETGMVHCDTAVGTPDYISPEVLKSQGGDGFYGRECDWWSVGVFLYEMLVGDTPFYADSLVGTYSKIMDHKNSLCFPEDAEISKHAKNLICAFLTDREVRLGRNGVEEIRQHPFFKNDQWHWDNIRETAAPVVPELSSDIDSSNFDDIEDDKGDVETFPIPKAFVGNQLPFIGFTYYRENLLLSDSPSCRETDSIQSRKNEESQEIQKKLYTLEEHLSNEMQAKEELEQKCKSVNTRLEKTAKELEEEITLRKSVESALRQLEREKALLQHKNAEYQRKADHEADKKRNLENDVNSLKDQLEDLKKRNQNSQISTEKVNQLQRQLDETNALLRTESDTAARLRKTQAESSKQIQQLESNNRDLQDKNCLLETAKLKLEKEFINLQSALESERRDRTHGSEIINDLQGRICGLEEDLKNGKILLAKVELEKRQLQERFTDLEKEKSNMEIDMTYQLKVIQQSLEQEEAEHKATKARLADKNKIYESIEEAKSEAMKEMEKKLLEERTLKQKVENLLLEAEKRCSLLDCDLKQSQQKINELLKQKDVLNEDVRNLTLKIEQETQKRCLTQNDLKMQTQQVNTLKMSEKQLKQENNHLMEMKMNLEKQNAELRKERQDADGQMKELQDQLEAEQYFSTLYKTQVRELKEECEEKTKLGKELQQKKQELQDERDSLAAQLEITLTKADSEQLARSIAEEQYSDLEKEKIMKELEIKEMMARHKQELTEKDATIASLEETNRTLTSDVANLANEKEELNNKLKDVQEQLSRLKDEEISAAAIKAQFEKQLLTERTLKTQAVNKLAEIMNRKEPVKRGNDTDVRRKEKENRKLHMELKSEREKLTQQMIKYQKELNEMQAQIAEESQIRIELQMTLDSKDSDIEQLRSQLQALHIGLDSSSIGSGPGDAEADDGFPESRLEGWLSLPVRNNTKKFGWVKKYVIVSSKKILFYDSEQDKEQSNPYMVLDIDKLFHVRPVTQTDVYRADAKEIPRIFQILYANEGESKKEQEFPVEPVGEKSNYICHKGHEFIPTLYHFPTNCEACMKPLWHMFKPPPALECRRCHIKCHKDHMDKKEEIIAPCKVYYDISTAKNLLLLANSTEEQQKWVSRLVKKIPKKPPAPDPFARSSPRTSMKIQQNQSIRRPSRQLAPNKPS

| Structure (SMILES) | IC50 |
| --- | --- |
| NC(CNC(=O)Cc1ccccn1)c1ccc(C(=O)Nc2ccncc2)cc1 (stereo unspecified) | 500 to 5000 nM |
| NC(CNC(=O)c1ccccc1Oc1ccccc1)c1ccc(C(=O)Nc2ccncc2)cc1 (stereo unspecified) | 500 to 5000 nM |
| CN(CC(N)c1ccc(C(=O)Nc2ccncc2)cc1)C(=O)Cc1c[nH]c2ccccc12 (stereo unspecified) | 500 to 5000 nM |
| CN(CC(N)c1ccc(C(=O)Nc2ccncc2)cc1)C(=O)C1(c2ccc(Cl)c(Cl)c2)CC1 (stereo unspecified) | 500 to 5000 nM |
| CC(C)(C)ON=Cc1cccc(C(=O)NCC(N)c2ccc(C(=O)Nc3ccncc3)cc2)c1 (stereo unspecified) | 500 to 5000 nM |
| Cc1ccsc1C=NOCC(=O)NCC(N)c1ccc(C(=O)Nc2ccncc2)cc1 (stereo unspecified) | 500 to 5000 nM |
| CN(CC(N)c1ccc(C(=O)Nc2ccncc2)cc1)C(=O)C1CCc2ccccc21 (stereo unspecified) | 500 to 5000 nM |
| CC(=O)Nc1ccc(C(=O)NCC(N)c2ccc(C(=O)Nc3ccncc3)cc2)cc1 (stereo unspecified) | 500 to 5000 nM |
| CNS(=O)(=O)c1ccc(C(=O)NCC(N)c2ccc(C(=O)Nc3ccncc3)cc2)cc1 (stereo unspecified) | 500 to 5000 nM |
| COCC(=O)NCC(N)c1ccc(C(=O)Nc2ccncc2)cc1 (stereo unspecified) | 500 to 5000 nM |
| CC(C)CC(=O)NCC(N)c1ccc(C(=O)Nc2ccncc2)cc1 (stereo unspecified) | 500 to 5000 nM |
| NC(CNC(=O)c1ccc(=O)[nH]n1)c1ccc(C(=O)Nc2ccncc2)cc1 (stereo unspecified) | 500 to 5000 nM |
| Cc1ccc(C(=O)NCC(N)c2ccc(C(=O)Nc3ccncc3)cc2)s1 (stereo unspecified) | 500 to 5000 nM |
| CN(CC(N)c1ccc(C(=O)Nc2ccncc2)cc1)C(=O)C1(c2cccs2)CC1 (stereo unspecified) | 500 to 5000 nM |
| CC(C)=NOC(C)C(=O)NCC(N)c1ccc(C(=O)Nc2ccncc2)cc1 (stereo unspecified) | 500 to 5000 nM |
| NC(CNC(=O)c1cc2cc(Cl)ccc2o1)c1ccc(C(=O)Nc2ccncc2)cc1 (stereo unspecified) | 500 to 5000 nM |
| COCCC(=O)NCC(N)c1ccc(C(=O)Nc2ccncc2)cc1 (stereo unspecified) | 500 to 5000 nM |

Other lines, results leading:

| IC50 | Structure (SMILES) |
| --- | --- |
| 50 to 500 nM | NC(c1ccc(C(=O)Nc2ccncc2)cc1)C1CCCN1C(=O)Cc1csc2ccccc12 (stereo unspecified) |
| 50 to 500 nM | Cc1cc(Cl)cc(Cl)c1CNC(=O)CC(N)c1ccc(C(=O)Nc2ccncc2)cc1 (stereo unspecified) |
| 50 to 500 nM | CC(C)(NC(=O)CC(N)c1ccc(C(=O)Nc2ccncc2)cc1)c1ccc(Cl)cc1 (stereo unspecified) |
| 500 to 5000 nM | COc1ccc(NC(=S)NCC(N)c2ccc(C(=O)Nc3ccncc3)cc2)cc1 (stereo unspecified) |
| 500 to 5000 nM | CN(C)CCCC(=O)NCC(N)c1ccc(C(=O)Nc2ccncc2)cc1 (stereo unspecified) |
| 500 to 5000 nM | NC(c1ccc(C(=O)Nc2ccncc2)cc1)C1CCCN1C(=O)Cc1ccc(F)cc1Cl (stereo unspecified) |
| 50 to 500 nM | NC(CNC(=O)CCc1ccccc1)c1ccc(C(=O)Nc2ccncc2)cc1 (stereo unspecified) |
| 50 to 500 nM | CN(C)c1ccc(NC(=O)NCC(N)c2ccc(C(=O)Nc3ccncc3)cc2)cc1 (stereo unspecified) |
| 500 to 5000 nM | CN(CC(N)c1ccc(C(=O)Nc2ccncc2)cc1)C(=O)C1CCOc2ccccc21 (stereo unspecified) |
| 500 to 5000 nM | NC(c1ccc(C(=O)Nc2ccncc2)cc1)C1CCCN1C(=O)Cc1cc(F)cc(F)c1 (stereo unspecified) |
| 50 to 500 nM | CN(CC(N)c1ccc(C(=O)Nc2ccncc2)cc1)C(=O)Cc1ccc(O)c([N+](=O)[O-])c1 (stereo unspecified) |
| 50 to 500 nM | NC(CNC(=O)Nc1ccc(F)cc1)c1ccc(C(=O)Nc2ccncc2)cc1 (stereo unspecified) |
| 50 to 500 nM | CC[C@@H](NC(=O)CC(N)c1ccc(C(=O)Nc2ccncc2)cc1)c1ccccc1 (stereo partly specified) |
| 50 to 500 nM | CCCCC(C)CCC(=O)NCC(N)c1ccc(C(=O)Nc2ccncc2)cc1 (stereo unspecified) |
| 50 to 500 nM | NC(CC(=O)NCc1ccc(C(F)(F)F)cc1)c1ccc(C(=O)Nc2ccncc2)cc1 (stereo unspecified) |
| 50 to 500 nM | NC(CC(=O)NCc1cccc(Cl)c1Cl)c1ccc(C(=O)Nc2ccncc2)cc1 (stereo unspecified) |
| 50 to 500 nM | NC(CC(=O)NCc1ccccc1Br)c1ccc(C(=O)Nc2ccncc2)cc1 (stereo unspecified) |
| 50 to 500 nM | NC(CC(=O)NCc1cccc(F)c1)c1ccc(C(=O)Nc2ccncc2)cc1 (stereo unspecified) |
| 50 to 500 nM | NC(CC(=O)NC1CCCCC1)c1ccc(C(=O)Nc2ccncc2)cc1 (stereo unspecified) |
| 50 to 500 nM | COc1ccccc1CNC(=O)CC(N)c1ccc(C(=O)Nc2ccncc2)cc1 (stereo unspecified) |
| 50 to 500 nM | N[C@H](CNC(=O)C1(c2ccc(Cl)cc2)CC1)c1ccc(C(=O)Nc2ccncc2)cc1 |
| 50 to 500 nM | CC(C)(C(=O)NC[C@@H](N)c1ccc(C(=O)Nc2ccncc2)cc1)c1ccc(Cl)cc1 |
| 50 to 500 nM | NC(c1ccc(C(=O)Nc2ccncc2)cc1)C1CCCN1C(=O)Cc1cccs1 (stereo unspecified) |
| 50 to 500 nM | NC(CC(=O)NCc1ccc(C(F)(F)F)c(F)c1)c1ccc(C(=O)Nc2ccncc2)cc1 (stereo unspecified) |
